{"source": "patent US10966426B2", "about": "“Herbicidal compositions comprising phenylpyrimidines” (BASF SE, priority 2016, dated 2021)", "type_in_all_cases": "in vivo", "key": {"Galium aparine": {"test_system": "Galium aparine", "assay": "greenhouse post-emergence treatment, GALAP", "conditions": "Galium aparine, 480 h, 20 DAT, GALAP, dicamba SL 480 g/l solo 70 gai/ha", "in_short": "(§1)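 Seeds sown per species in pots of loamy sand; seedlings either grown in place or transplanted days before treatment. Post-emergence spray of water-based liquor at 3–15 cm height. Injury rated 0–100 over 2 to 4 weeks.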"}, "Bromus sterilis": {"test_system": "Bromus sterilis", "assay": "greenhouse post-emergence treatment, BROST", "conditions": "Bromus sterilis, 480 h, 20 DAT, BROST", "in_short": "(§2)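 Visual damage score 0–100 (0 = normal growth; 100 = no emergence/above-ground parts destroyed), read 2–4 wk post-treatment. Loamy sand, ~3.0% humus; seedlings grown in place or transplanted days before spraying; water as solvent; 10-25° C. or 20-35° C. per species. Combination expectations by Colby: E=X+Y−(X·Y/100).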"}, "Papaver rhoeas": {"test_system": "Papaver rhoeas", "assay": "greenhouse post-emergence treatment, PAPRH", "conditions": "Papaver rhoeas, 480 h, 20 DAT, PAPRH", "in_short": "as §1"}, "Digitaria sanguinalis": {"test_system": "Digitaria sanguinalis", "assay": "greenhouse post-emergence treatment, DIGSA", "conditions": "Digitaria sanguinalis, 480 h, 20 DAT, DIGSA", "in_short": "as §2"}, "Helianthus annuus": {"test_system": "Helianthus annuus", "assay": "greenhouse post-emergence treatment, HELAN", "conditions": "Helianthus annuus, 480 h, 20 DAT, HELAN, dicamba SL 480 g/l solo 70 gai/ha", "protocol": "(§3) The culture containers used were plastic pots containing loamy sand with approximately 3.0% of humus as substrate. The seeds of the test plants were sown separately for each species.\n(§4) For the post-emergence treatment, the test plants were grown to a plant height of from 3 to 15 cm, depending on the plant habit, and only then treated with the active compounds which had been suspended or emulsified in water. To this end, the test plants were either sown directly, and grown in the same containers, or they were first grown separately as seedlings and transplanted into the test containers a few days prior to treatment.\n(§5) Depending on the species, the plants were kept at 10-25° C. and 20-35° C., respectively.\n(§6) The test period extended over 2 to 4 weeks. During this time, the plants were tended and their response to the individual treatments was evaluated.\n(§7) Evaluation was carried out using a scale from 0 to 100. 100 means no emergence of the plants, or complete destruction of at least the above-ground parts, and 0 means no damage or normal course of growth. A good herbicidal activity is given at values of at least 70, and very good herbicidal activity is given at values of at least 85.\n(§8) The respective stated components A and B, and if appropriate, C were formulated as a 10% by weight strength emulsion concentrate and, with addition of the amount of solvent system, introduced into the spray liquor used for applying the active compound. In the examples, the solvent used was water.\n(§9) In the examples below, using the method of S. R. Colby (1967) “Calculating synergistic and antagonistic responses of herbicide combinations”, Weeds 15, p. 22ff., the value E, which is expected if the activity of the individual active compounds is only additive, was calculated. E=X+Y−(X·Y/100) where X=effect in percent using herbicide A at an application rate a; • Y=effect in percent using herbicide B at application rate b; • E=expected effect (in %) of herbicide A+herbicide B at application rates a+b."}, "Brachiaria decumbens": {"test_system": "Brachiaria decumbens", "assay": "greenhouse post-emergence treatment, BRADC", "conditions": "Urochloa decumbens, 480 h, 20 DAT, BRADC", "in_short": "(§10)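 Scale 0–100 damage rating (100 = complete destruction of above-ground parts, 0 = normal growth), read 2 to 4 weeks after post-emergence application of aqueous spray liquor to plants 3–15 cm tall.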"}, "Echinocloa crus-galli": {"test_system": "Echinocloa crus-galli", "assay": "greenhouse post-emergence treatment, ECHCG", "conditions": "Echinochloa crus-galli, 480 h, 20 DAT, ECHCG, dicamba SL 480 g/l solo 35 gai/ha", "protocol": "as §3, §4, §5, §6, §7, §8, §9"}, "Alopecurus myosuroides": {"test_system": "Alopecurus myosuroides", "assay": "greenhouse post-emergence treatment, ALOMY", "conditions": "Alopecurus myosuroides, 480 h, 20 DAT, ALOMY", "in_short": "as §2"}, "Lolium multiflorum": {"test_system": "Lolium multiflorum", "assay": "greenhouse post-emergence treatment, LOLMU", "conditions": "Lolium multiflorum, 480 h, 20 DAT, LOLMU", "in_short": "as §2"}, "Stellaria media": {"test_system": "Stellaria media", "assay": "greenhouse post-emergence treatment, STEME", "conditions": "Stellaria media, 480 h, 20 DAT, STEME, dicamba SL 480 g/l solo 35 gai/ha", "in_short": "as §10"}, "Setaria viridis": {"test_system": "Setaria viridis", "assay": "greenhouse post-emergence treatment, SETVI", "conditions": "Setaria viridis, 480 h, 35 gai/ha (SL 480 g/l), 20 DAT, SETVI, Table X7, read-out: % activity, solo application", "in_short": "as §2"}, "Poa annua": {"test_system": "Poa annua", "assay": "greenhouse post-emergence treatment, POAAN", "conditions": "Poa annua, 480 h, 20 DAT, POAAN", "in_short": "as §10"}, "Matricaria chamomilla": {"test_system": "Matricaria chamomilla", "assay": "greenhouse post-emergence treatment, MATCH", "conditions": "Matricaria chamomilla, 480 h, 70 gai/ha (SL 480 g/l), 20 DAT, MATCH, Table X7, read-out: % activity, solo application", "in_short": "as §1"}, "[1]": {"conditions": "dicamba SL 480 g/l solo 17.5 gai/ha"}, "[2]": {"conditions": "dicamba SL 480 g/l solo 35 gai/ha"}, "[3]": {"conditions": "dicamba SL 480 g/l solo 70 gai/ha"}, "[4]": {"conditions": "dicamba SL 480 g/l solo 140 gai/ha"}, "[5]": {"conditions": "35 gai/ha (SL 480 g/l), Table X7, read-out: % activity, solo application"}}, "note": "Read-outs that look alike come from different tables or passages of the source."}
{"smiles": "COc1c(Cl)ccc(Cl)c1C(=O)O", "note": "[Dicamba, dicamba]", "values": [{"measurement": "inhibition at 70 g/ha", "setting": "Galium aparine", "value": 85, "unit": "%"}, {"measurement": "inhibition at 17.5 g/ha", "setting": "Bromus sterilis; [1]", "value": 0, "unit": "%"}, {"measurement": "inhibition at 35 g/ha", "setting": "Bromus sterilis; [2]", "value": 0, "unit": "%"}, {"measurement": "inhibition at 70 g/ha", "setting": "Bromus sterilis; [3]", "value": 0, "unit": "%"}, {"measurement": "inhibition at 140 g/ha", "setting": "Bromus sterilis; [4]", "value": 0, "unit": "%"}, {"measurement": "inhibition at 17.5 g/ha", "setting": "Papaver rhoeas; [1]", "value": 20, "unit": "%"}, {"measurement": "inhibition at 35 g/ha", "setting": "Papaver rhoeas; [2]", "value": 30, "unit": "%"}, {"measurement": "inhibition at 17.5 g/ha", "setting": "Digitaria sanguinalis; [1]", "value": 0, "unit": "%"}, {"measurement": "inhibition at 35 g/ha", "setting": "Digitaria sanguinalis; [2]", "value": 0, "unit": "%"}, {"measurement": "inhibition at 70 g/ha", "setting": "Digitaria sanguinalis; [3]", "value": 0, "unit": "%"}, {"measurement": "inhibition at 140 g/ha", "setting": "Digitaria sanguinalis; [4]", "value": 30, "unit": "%"}, {"measurement": "inhibition at 70 g/ha", "setting": "Helianthus annuus", "value": 85, "unit": "%"}, {"measurement": "inhibition at 17.5 g/ha", "setting": "Brachiaria decumbens; [1]", "value": 0, "unit": "%"}, {"measurement": "inhibition at 35 g/ha", "setting": "Brachiaria decumbens; dicamba SL 480 g/l solo 35 gai/ha, read-out: % activity", "value": 0, "unit": "%"}, {"measurement": "inhibition at 140 g/ha", "setting": "Brachiaria decumbens; [4]", "value": 30, "unit": "%"}, {"measurement": "inhibition at 35 g/ha", "setting": "Brachiaria decumbens; [5]", "value": 0, "unit": "%"}, {"measurement": "inhibition at 35 g/ha", "setting": "Echinocloa crus-galli", "value": 0, "unit": "%"}, {"measurement": "inhibition at 140 g/ha", "setting": "Alopecurus myosuroides; dicamba SL 480 g/l solo 140 gai/ha, read-out: % activity", "value": 0, "unit": "%"}, {"measurement": "inhibition at 35 g/ha", "setting": "Alopecurus myosuroides; [5]", "value": 0, "unit": "%"}, {"measurement": "inhibition at 70 g/ha", "setting": "Alopecurus myosuroides; 70 gai/ha (SL 480 g/l), Table X7, read-out: % activity, solo application", "value": 0, "unit": "%"}, {"measurement": "inhibition at 140 g/ha", "setting": "Alopecurus myosuroides; 140 gai/ha (SL 480 g/l), Table X7, read-out: % activity, solo application", "value": 0, "unit": "%"}, {"measurement": "inhibition at 280 g/ha", "setting": "Alopecurus myosuroides; 280 gai/ha (SL 480 g/l), Table X7, read-out: % activity, solo application", "value": 5, "unit": "%"}, {"measurement": "inhibition at 17.5 g/ha", "setting": "Lolium multiflorum; [1]", "value": 0, "unit": "%"}, {"measurement": "inhibition at 35 g/ha", "setting": "Lolium multiflorum; [2]", "value": 0, "unit": "%"}, {"measurement": "inhibition at 35 g/ha", "setting": "Stellaria media", "value": 80, "unit": "%"}, {"measurement": "inhibition at 35 g/ha", "setting": "Setaria viridis", "value": 0, "unit": "%"}, {"measurement": "inhibition at 17.5 g/ha", "setting": "Poa annua; [1]", "value": 0, "unit": "%"}, {"measurement": "inhibition at 35 g/ha", "setting": "Poa annua; [2]", "value": 0, "unit": "%"}, {"measurement": "inhibition at 70 g/ha", "setting": "Poa annua; [3]", "value": 0, "unit": "%"}, {"measurement": "inhibition at 140 g/ha", "setting": "Poa annua; [4]", "value": 0, "unit": "%"}, {"measurement": "inhibition at 70 g/ha", "setting": "Matricaria chamomilla", "value": 0, "unit": "%"}]}
